Measurements reported in US20050163835A1, “Pharmaceutical formulation of iressa comprising a water-soluble cellulose derivative” (AstraZeneca AB, priority 2002, published 2005).

Key:
[1] = pH shift dissolution (precipitation) test; assay type: physicochemical
Description: The formulations described in the examples above were dissoluted in media comprising 500 ml 0.07N HCl (approximately pH 1.5) and sodium chloride (0.2% w/v) for one hour at 37° C. (paddle speed 100 rpm). A 5 ml sample was taken at 60 minutes and the media replaced.
10 ml of a 2.5M KH2PO4/16.72% (w/v) NaOH solution was then added to shift the pH to 6.5. 5ml samples were then removed with a plastic syringe at 2, 5, 15, 30, 45 and 60 minutes after pH adjustment and media replaced after every sampling time point. Each sample was centrifuged (14,000 rpm) at ambient temperature for 15 minutes and then analysed by HPLC using the following conditions:

[2] = pH-dependent aqueous solubility of the Agent; assay type: physicochemical; conditions: free-base form

- % Agent in solution at 2 mins after pH adjustment to pH 6.5 ([1]; 2 mins after shift from pH 1.5 to pH 6.5, HPLC of centrifuged sample): 6.5%
- % Agent in solution at 5 mins after pH adjustment to pH 6.5 ([1]; 5 mins after shift from pH 1.5 to pH 6.5, HPLC of centrifuged sample): 6.9%
- % Agent in solution after 60 mins in acidic media (~pH 1.5) ([1]; 500 ml 0.07N HCl, 0.2% w/v NaCl, 37° C., before pH shift, HPLC): 102.6%
- solubility in aqueous media ([2]; above pH 7): practically insoluble
- aqueous solvent required to dissolve 1 g of Agent ([2]; pH 6): ≥ 10000 mL
SMILES: COc1cc2ncnc(Nc3ccc(F)c(Cl)c3)c2cc1OCCCN1CCOCC1 [Agent, 4-(3′-chloro-4′-fluoroanilino)-7-methoxy-6-(3-morpholinopropoxy)quinazoline]
